Source: paper PMC5039417, “Aberrant Glycosylation of Anchor-Optimized MUC1 Peptides Can Enhance Antigen Binding Affinity and Reverse Tolerance to Cytotoxic T Lymphocytes” (Biomolecules, 2016)
No end group written: not given here.

Experiments:
HLA-A*0201 molecules = HLA-A*0201 molecules (Homo sapiens, UniProt P04439, D140Y/D185E/D98H/E176V/E277Q/G131W/G231S/I119V/I121R/I166T/I218V/L300P/L318F/N151K/N90K/P208A/P217A/Q86G/Q94H/R138H/R169H/T345S); experiment: Competitive peptide inhibition assay (F1-peptide displacement on T2 cells)
[1] = tested on: MCF-7 cells (MUC1+, HLA-A*0201+); experiment: 51Cr-release assay, peptide-induced CTLs from normal donors; type: cell-based, human; conditions: for Lysis of MCF-7 cells by CTLs elicited with the peptide: 8 normal post-menopausal HLA-A*0201 women, E:T 100:1, 6 h, p = 0.008 vs negative control P11; for % of Donors with at Least 30% Cell Kill: normal donors (n = 8), MCF-7 targets, 30% cell kill considered a response
[2] = tested on: CD8+ T cells (IFNγ production); experiment: IFNγ ELISpot of peptide-induced CD8+ T cells; type: cell-based, human; conditions: for IFNγ production by CD8+ T cells generated to the peptide: normal donors, two rounds of stimulation, 24 h on ELISpot plate
Procedure: Figure 5 Production of IFNγ by CD8^+ T cells was induced in response to MUC1 peptides. Following two rounds of stimulation, CD8^+ cells were maintained for 24 h on an ELISpot plate. Spot numbers were determined using computer assisted video image analysis by Zellnet Consulting Inc. There were no significance differences compared to the negative peptide (p > 0.05).
IFNγ ELISpot plates from Mabtech (Stockholm, Sweden) were used to detect IFNγ producing MUC1-specific CTLs. The assay was performed using the capture IFNγ antibody as recommended by the manufacturer. Day five post R2-stimulation, the CTLs were washed three times and 1 × 10^5 cells were transferred to the washed and blocked IFNγ ELISpot plates and incubated at 37 °C in a 5% CO2 incubator for 24 h. After incubation the plates were washed with PBS, incubated with alkaline phosphatase-conjugated IFNγ antibody at room temperature for two hours and then spots were detected with BCIP/NBT substrate. Spot numbers were determined using computer assisted video image analysis by Zellnet Consulting Inc. (Fort Lee, NJ, USA).

[3] = molecular target: HLA-A*0201 molecules on T2 cells (Homo sapiens, UniProt P04439, D140Y/D185E/D98H/E176V/E277Q/G131W/G231S/I119V/I121R/I166T/I218V/L300P/L318F/N151K/N90K/P208A/P217A/Q86G/Q94H/R138H/R169H/T345S); experiment: MHC stabilization assay on T2 cells (fluorescence index); type: cell-based; conditions: peptide 0–100 μg/mL, β2-microglobulin 1 μg/mL, 18 h 37 °C, BB7.2 antibody, flow cytometry
Procedure: Figure 1 MUC1 peptides (anchor-optimized and glycosylated) stabilized HLA-A*0201 molecules on T2 cells. Increasing amounts of the MUC1 peptides (0–100 μg/mL) and β2-microglobulin (1 μg/mL) were incubated with T2 cells for 18 h at 37 °C prior to staining with the HLA-A*0201 antibody (clone BB7.2, Pharmingen). Mean fluorescence intensity (MFI) was determined by flow cytometry and the fluorescence index (FI) was calculated from the formula: FI = (FS − FB)/(FT2 − FB) × 100 where FS is the MFI of the test peptides, FB is the non-peptide isotype antibody-stained control MFI, and FT2 is the non-peptide HLA-A*0201 antibody-stained control MFI.
Peptide binding to HLA-A*0201 was analyzed using TAP1- and TAP2-deficient T2 cells which express the HLA-A*0201 allele. […] Binding of the peptides was measured using flow cytometry for upregulation of HLA-A2 surface expression on the T2 cells. […] Mean fluorescence intensity (MFI) was determined and the fluorescence index (FI) was calculated from the formula: FI = (FS − FB)/(FT2 − FB) × 100 where FS is the MFI of the test peptides, FB is the no-peptide isotype antibody-stained control MFI, and FT2 is the no-peptide HLA-A2 antibody-stained control MFI [52].

[4] = tested on: CD8+ T cells from HLA-A*0201 breast cancer patients; experiment: 3H-thymidine proliferation of T cells from breast cancer patients; type: cell-based, human; conditions: 23 HLA-A*0201 breast cancer patients, DCs pulsed with 10 μg/mL peptide + IL-2, 5 days, vs no-peptide stimulated T cells
Procedure: CD8^+ T cells from the patients were incubated with irradiated autologous DCs pulsed with the various MUC1 peptides (10 μg/mL) plus IL-2 for 5 days and proliferation was assessed by measuring the ^3H-thymidine uptake. T cells from ~38% of the breast cancer patients responded to the selected MUC1 peptides (Figure 6).
Figure 6 T cells from ~38% of the HLA-A2^+ breast cancer patients regardless of their stage, ER/PR and HER2 status responded to the selected MUC1 peptides. 1 × 10^5 T cells were incubated with irradiated […] DCs pulsed with the various MUC1 peptides (10 μg/mL) + IL-2 for 5 days in complete media. Proliferation was assessed by measuring the ^3H-thymidine uptake and is reported as fold increase in counts per minute. The dotted line indicates the two-fold increase in proliferation.

[5] = tested on: MCF-7 cells (HLA-A*0201+, MUC1+); experiment: 51Cr-release assay, peptide-induced CTLs from breast cancer patients; type: cell-based, human; conditions: for Lysis of MCF-7 cells by T cells from cancer samples: all three breast cancer patient samples, E:T 100:1
From the text: Figure 7 In vitro stimulation of T cells from HLA-A*0201^+ cancer patients (peri-menopausal) with anchor-optimized and/or glycosylated MUC1 peptides elicited strong CTL activity. (A) PBLs underwent two rounds of stimulation and sorted CD8^+ T cells were subjected to a ^51Cr-release assay. Targets were MCF-7 cells (HLA-A*0201^+, MUC1^+). Effector:target ratio was 100:1 and spontaneous release was less than 25% of complete lysis. The filled triangles designate normal individuals and the open triangles designate breast cancer patients. […] Following two rounds of stimulation, CD8^+ cells were maintained for 24 h on an ELISpot plate. Spot numbers were determined using computer assisted video image analysis by Zellnet Consulting Inc. (FortLee, NJ, USA). There was no evidence of a significance difference in spot numbers between cancer patients and healthy controls (Wilcoxon rank sum test; p > 0.05).
An optimized protocol for the generation of peptide-specific CTLs was developed that relied upon autologous DCs for stimulation. PBMCs (2 × 10^6 cells/mL of AIM V medium) were transferred to a 24-well plate and incubated for 2 h at 37 °C. Non-adherent lymphocytes were washed off with PBS and the adherent cells were cultured in X-VIVO medium containing GM-CSF (1000 U/mL) and IL-4 (1000 U/mL) to generate DCs. […] DCs were analyzed by flow cytometry for appropriate maturation markers. […] Five to seven days later, T cells were analyzed for cytolytic activity by ^51Cr-release assay and interferon gamma production by ELISPOT.
The lytic activity of the in vitro stimulated peptide-specific CTLs was measured by a standard six-hour ^51Cr-release assay. […] After incubation, 30 μL of supernatant was transferred onto LUMA plates (Perkin Elmer, Waltham, MA, USA) and radioactive ^51Cr release was measured in a Topcount Micro-scintillation Counter (Packard Biosciences, Shelton, CT, USA). […]

[6] = tested on: Autologous DCs pulsed with MUC1 peptides; experiment: 51Cr-release assay against peptide-pulsed autologous DCs; type: cell-based, human; conditions: four normal donors, DCs pulsed with 50 μg/mL peptide and PADRE 10 μg/mL, E:T 100:1
Procedure: Autologous DCs pulsed with various MUC1 peptides (50 μg/mL) and PADRE peptide (10 μg/mL) were used as targets. Effector:target ratio was 100:1 and spontaneous release was less than 15% of complete lysis. * p < 0.05 (Student’s t-test) compared to the negative peptide.
The lytic activity of the in vitro stimulated peptide-specific CTLs was measured by a standard six-hour ^51Cr-release assay. The target cells used were MCF-7 breast cancer cell lines which express MUC1^+ and HLA-A*0201, and MDA-MB-231 cells, which are MUC1 negative and express HLA-A*0201. All tumor targets were treated with IFNγ one-day prior to use to up-regulate class I surface expression. Autologous DCs pulsed with the recall peptides, other modified peptides and the native peptide were also used as targets to evaluate cross-reactivity of MUC1-specific CTLs. The targets were labeled with Na^51CrO4 (0.1 mCi/mL) for 2 h, washed 3 times with PBS and re-suspended in T cell medium to a concentration of 2 × 10^4 cells/mL. […] After incubation, 30 μL of supernatant was transferred onto LUMA plates (Perkin Elmer, Waltham, MA, USA) and radioactive ^51Cr release was measured in a Topcount Micro-scintillation Counter (Packard Biosciences, Shelton, CT, USA). Percent specific lysis was calculated according to the following formula: Percent specific lysis = (experimental cpms − spontaneous cpms)/(complete cpms − spontaneous cpms) × 100. […]

Compound: CC(C)C[C@H](NC(=O)[C@@H](N)CO)C(=O)N[C@@H](C)C(=O)N1CCC[C@H]1C(=O)N1CCC[C@H]1C(=O)N[C@H](C(=O)N[C@@H](Cc1c[nH]cn1)C(=O)N[C@@H](CC(N)=O)C(=O)N[C@H](C(=O)O)C(C)C)C(C)C [P15]
- IC50 (HLA-A*0201 molecules): 363 nM

Compound: STAPT(Tn)VHNV [P2, Tn-glycosylated MUC1 peptide]
- Lysis of MCF-7 cells by CTLs elicited with the peptide, one individual ([1]; CTLs from one normal individual, E:T 100:1): low lysis
- IFNγ production by CTLs elicited by the peptide, one individual ([2]; CTLs from one normal individual): strong production of IFNγ
- IFNγ production by CD8+ T cells generated to the peptide [2]: showed production of IFNγ

Compound: SLSYTNPAV [P7]
- IC50 (HLA-A*0201 molecules): 441 nM

Compound: STAPPVHNV [P1]
- Binding to HLA-A*0201 on T2 cells by fluorescence index (FI) [3]: bound moderately
- Lysis of MCF-7 cells by CTLs elicited with the peptide [1]: did not elicit lytic T cells
- Patients responding with >2-fold increase in proliferation [4]: 8/23
- Lysis of MCF-7 cells by T cells from cancer samples [5]: greater than 30%
- Activation of lytic T cells from breast cancer patients ([5]; three breast cancer patients, MCF-7 targets): effectively activated lytic T cells from all three breast cancer patients
- IC50 (concentration producing 50% inhibition of F1-peptide binding) (HLA-A*0201 molecules; T2 cells, F1-peptide 100 ng/mL, β2-microglobulin 1 μg/mL, competitor 0–100 μg/mL, flow cytometry MFI, Prism): 10.13 µg/mL
- Affinity class of binder to HLA-A*0201 (HLA-A*0201 molecules; scored from IC50 in the competition assay on T2 cells): medium (“medium affinity binders” with IC50 of ≥to 5 μg/mL and <15 μg/mL)

Compound: SLAPT(Tn)VHNV [P4]
- Lysis of MCF-7 cells by CTLs elicited with the peptide [1]: significant lysis
- Percent of donors that will respond (lower limit of 95% CI) ([1]; based on considering 30% cell kill a response): at least 35%
- % of Donors with at Least 30% Cell Kill ([1]; E:T 100:1): 75%
- Lytic reactivity of CTLs against DCs pulsed with immunizing or native P1 peptide [6]: reacted against the native P1:STAPPVHNV
- IFNγ production by CD8+ T cells generated to the peptide [2]: showed production of IFNγ
- Patients responding with >2-fold increase in proliferation [4]: 10/23
- Lysis of MCF-7 cells by T cells from cancer samples [5]: greater than 30%
- Fold higher affinity than the known M1.1 and M1.2 MUC1 peptides (HLA-A*0201 molecules; discussion, '8- to 30-fold, respectively'): 8 fold

Compound: ALGSTAPPV [P9, unmodified native MUC1 degenerate TR peptide, reference compound]
- % of Donors with at Least 30% Cell Kill ([1]; E:T 100:1): 12.50%

Compound: LLLLTVLTV [P5]
- IC50 (HLA-A*0201 molecules): 11100 nM
